Experimental data taken from patent EP2511272B1, “Synthetic analogues of abscisic acid with anti-inflammatory and insulin release stimulation effects on human cells” (Universita' degli Studi di Genova, priority 2011, dated 2012).

Legend:
human granulocytes = assay: Inhibition of ABA-induced PGE2 production in granulocytes (EIA); format: cell-based; details: 6 h
Method: Granulocytes, in a number of 1x10^7 per point in RPMI supplemented with 10 % of foetal calf serum (FCS), penicillin (50 units/ml) and streptomycin (50 µg/ml) (complete RPMI), were incubated for 6 h with […] either alone or in the presence compound prepared according to example 1 at a concentration of 100 nM or of 1 µM. At the end of the incubation, the substrate was centrifuged at 17,000xg for 5 minutes and the concentration of PGE2 was quantitated by using the kit: PGE2 monoclonal EIA kit (Cayman Chemical Co.), following the instructions suppled by the manufacturer.
The cells were lysed in 200 µl of deionized water in order to quantitate total proteins by the Bradford method (Bradford, M. M., 1976), after thre preliminary generation of a reference standard curve, obtained with different concentrations of bovine serum albumin. The spectrophotometric measurements were carried out at wavelength of 595 nm.
The experiment was carried out three times in triplicate TABLE 6). TABLE 6. Inhibition of PGE2 production, in human granulocytes stimulated with ABA, by compound prepared according to example 1

[1] = Stability after extraction from H2O and HBSS (HPLC-MS); format: physicochemical; details: for Stability after extraction (amount found): 10 µM; for degradation: 0 vs 24 hrs
Method: (§1) Compound prepared according to example 1 was tested for stability at 10 µM concentration in deionized water, phosphate buffer (HBSS with calcium and magnesium) and human plasma for 0 and after 24 hrs at 37 °C, by carrying out the extraction as described in Materials and Methods, and subsequent HPLC-MS analysis for the analyte of interest.
(§2) For stability tests, to 2 ml of deionized water, HBSS or human plasma, the compound of example 1 (10 µM) and 5,000 cpm of [^3H]ABA were added, for the purpose of evaluating the recovery after the extraction procedure. The so prepared samples were exctracted at time 0 and after 24 hrs.
(§3) For the extraction, 8 ml was added of distilled methanol (methanol/water : 80/20 vol/vol) and the mixture was kept at -20 °C overnight.
(§4) The following day the samples were centrifuged at 800xg for 10 minutes and the supernatant was concentrated to dryness by Rotavapor. The reconstituted aqueous solution was acidified at pH 2.6 with 10 % trifluoroacetric acid (TFA) and was extracted three times with diethyl ether (diethyl ether/water: 1:1 vol/vol).
(§5) The ethereal phase was finally removed by Rotavapor and the extraxt was resuspended in 1 ml of HBSS; 8 µl of such solution was analysed by HPLC-MS, and 100 µl was used for radioactivity counting by a Packard β-counter in order to compute extraction recovery.
(§6) The HPLC-MS system used consists of an Agilent 1100 capillary chromatograph equipped with a diode array detector (DAD) and coupled with an Agilent 1100 series LC/MSD Trap mass spectometer with orthogonal electrospray source and a ionic-trap analyser.
(§7) The detection wavelength was 254 nm and the MS spectrum was recorded in negative ions mode in an m/z range of 50-300.
(§8) The amount of compound of example 1 in the extracts and supernatants was computed as the area of the peak under the extracted ion current m/z 279.3, normalized for the ionization efficiency of internal standard (hexadeuterated ABA) used for HPLC-MS analysis. Furthermore, the concentration was computed using the recovery rates obtained from the evaluation of counts per minute (cpm) of extracted [^3H]ABA.

[2] = Stability after extraction from human plasma (HPLC-MS); format: in vitro ADME; details: for Stability after extraction (amount found): Plasma, 10 µM
Method: as §1, §2, §3, §4, §5, §6, §7, §8

[3] = test system: 1321 N1 (human astrocytoma); assay: Cytotoxicity, CellTiter 96 AQueous One Solution assay; format: cell-based; details: 24 hrs

## CC(=C/C(=O)O)/C=C/C1(O)C(C)(C)CC(=O)C2OC21C (stereo not drawn) [Example 1, 2'α,3'α-dihydro-2'α,3'α-epoxyabscisic acid]
Human granulocytes; ABA 100 nM + compound 100 nM
  inhibition at 0.1 µM: 85%
Human granulocytes; ABA 100 nM + compound 1 µM
  inhibition at 1 µM: 100%
[1]; H2O, 0 hr, equals extraction yield, listed as compound of example 1
  Stability after extraction (amount found): 100%
[1]; H2O, 0 hr, equals extraction yield, listed as compound prepared according to example 1
  Stability after extraction (amount found): 100%
[1]; H2O, 24 hrs at 37 °C
  Stability after extraction (amount found): 86%
[1]; HBSS, 0 hr, equals extraction yield, listed as compound of example 1
  Stability after extraction (amount found): 76%
[1]; HBSS, 0 hr, equals extraction yield, listed as compound prepared according to example 1
  Stability after extraction (amount found): 76%
[1]; HBSS, 24 hrs at 37 °C
  Stability after extraction (amount found): 73%
[1]; in phosphate buffer
  degradation: 3%
[1]; in water
  degradation: 14%
[2]; 0 hr, equals extraction yield, listed as compound of example 1
  Stability after extraction (amount found): 56%
[2]; 0 hr, equals extraction yield, listed as compound prepared according to example 1
  Stability after extraction (amount found): 56%
[2]; 24 hrs at 37 °C
  Stability after extraction (amount found): 49%
[2]; in plasma, 0 vs 24 hrs
  degradation: 7%
[3]; 1 nM
  number of cells: 16199
  vitality %: 89%
[3]; 10 nM
  number of cells: 18785
  vitality %: 102%
[3]; 1 µM
  number of cells: 19446
  vitality %: 106%
[3]; 100 µM
  number of cells: 22252
  vitality %: 120%
